{"source": "the supplement of paper PMC10331698", "experiment_in_all_cases": "LOEC (log10 uM (lowest observed effect concentration))", "key": {"[1]": {"compound": "O=C(CC(=O)C(F)(F)C(F)(F)C(F)(F)F)c1cccs1 [(Perfluorobutyryl)-2-thenoylmethane]", "method": "(§1)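 BioMAP Diversity Plus panel in human primary cell co-cultures, 4 concentrations in duplicate blinded samples. Responses are log10 fold change versus DMSO control, processed with tcpl v2.1.0. A hit is called when responses at any concentration exceed the cutoff (the larger of 3*bmad or log10(1.2)); the lowest observed effect concentration (modl_ga, log10 uM) is reported for hits.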"}, "[2]": {"compound": "C=CC(=O)OCC(F)(F)C(F)(F)C(F)(F)C(F)(F)COC(=O)C=C [1H,1H,6H,6H-Perfluorohexane-1,6-diol diacrylate]", "method": "as §1"}, "[3]": {"compound": "OCCCC(F)(F)C(F)(F)C(F)(F)C(F)(F)C(F)(F)C(F)(F)C(F)(F)C(F)(F)F [3-(Perfluorooctyl)propanol]", "method": "as §1"}, "[4]": {"compound": "OCC(F)(F)C(F)(F)C(F)(F)C(F)(F)C(F)(F)C(F)(F)F [6:1 Fluorotelomer alcohol]", "method": "as §1"}, "[5]": {"compound": "FC(F)(I)C(F)(F)C(F)(F)C(F)(F)C(F)(F)C(F)(F)I [1,6-Diiodoperfluorohexane]", "method": "as §1"}, "Perfluoropinacol": {"compound": "OC(C(F)(F)F)(C(F)(F)F)C(O)(C(F)(F)F)C(F)(F)F [Perfluoropinacol]", "method": "as §1"}, "[6]": {"compound": "OCCC(F)(F)C(F)(F)C(F)(F)C(F)(F)C(F)(F)C(F)(F)C(F)(F)C(F)(F)F [8:2 Fluorotelomer alcohol]", "method": "as §1"}, "[7]": {"compound": "OCC(F)(F)C(F)(F)C(F)(F)C(F)(F)C(F)(F)C(F)(F)C(F)(F)C(F)(F)CO [1H,1H,10H,10H-Perfluorodecane-1,10-diol]", "method": "as §1"}, "[8]": {"compound": "C=CC(=O)OCC(F)(F)C(F)(F)C(F)(F)C(F)(F)C(F)(F)C(F)(F)C(F)(F)C(F)F [1H,1H,9H-Perfluorononyl acrylate]", "method": "as §1"}, "[9]": {"compound": "FC(F)(F)C(F)(F)C(F)(F)C(F)(F)CCI [1H,1H,2H,2H-Perfluorohexyl iodide]", "method": "as §1"}, "[10]": {"compound": "Cc1ccc(S(=O)(=O)OCC(F)(F)C(F)(F)C(F)(F)C(F)(F)C(F)(F)C(F)F)cc1 [1H,1H,7H-Perfluoroheptyl 4-methylbenzenesulfonate]", "method": "as §1"}, "[11]": {"compound": "OCC(F)(F)C(F)(F)C(F)(F)C(F)(F)C(F)(F)C(F)(F)C(F)(F)C(F)(F)C(F)(F)C(F)(F)C(F)(F)F [11:1 Fluorotelomer alcohol]", "method": "as §1"}}, "note": "± gives the standard deviation of the averaged measurements.", "data": [{"test system": "BT xIL17F down", "values": [{"measurement": "LOEC (log10 uM)", "setting": "[1]", "value": 1.3}, {"measurement": "LOEC (log10 uM)", "setting": "[2]", "value": "0.573 ± 0.39"}, {"measurement": "LOEC (log10 uM)", "setting": "[3]", "value": 1.3}, {"measurement": "LOEC (log10 uM)", "setting": "[4]", "value": 1.78}, {"measurement": "LOEC (log10 uM)", "setting": "[5]", "value": "1.54 ± 0.34"}, {"measurement": "LOEC (log10 uM)", "setting": "Perfluoropinacol", "value": "1.54 ± 0.34"}, {"measurement": "LOEC (log10 uM)", "setting": "[6]", "value": 1.78}, {"measurement": "LOEC (log10 uM)", "setting": "[7]", "value": 1.78}, {"measurement": "LOEC (log10 uM)", "setting": "[8]", "value": 1.3}]}, {"test system": "hDFCGF MCSF down", "values": [{"measurement": "LOEC (log10 uM)", "setting": "[2]", "value": "0.573 ± 0.39"}, {"measurement": "LOEC (log10 uM)", "setting": "[3]", "value": 0.845}, {"measurement": "LOEC (log10 uM)", "setting": "[4]", "value": 1.78}, {"measurement": "LOEC (log10 uM)", "setting": "[5]", "value": 0.845}, {"measurement": "LOEC (log10 uM)", "setting": "Perfluoropinacol", "value": 1.3}, {"measurement": "LOEC (log10 uM)", "setting": "[6]", "value": 1.3}, {"measurement": "LOEC (log10 uM)", "setting": "[7]", "value": 1.78}, {"measurement": "LOEC (log10 uM)", "setting": "[8]", "value": "1.54 ± 0.34"}]}, {"test system": "4H Eotaxin3 down", "values": [{"measurement": "LOEC (log10 uM)", "setting": "[1]", "value": 1.3}, {"measurement": "LOEC (log10 uM)", "setting": "[2]", "value": 1.3}, {"measurement": "LOEC (log10 uM)", "setting": "[3]", "value": 1.3}, {"measurement": "LOEC (log10 uM)", "setting": "[9]", "value": 1.78}, {"measurement": "LOEC (log10 uM)", "setting": "[5]", "value": 1.3}, {"measurement": "LOEC (log10 uM)", "setting": "Perfluoropinacol", "value": 1.3}, {"measurement": "LOEC (log10 uM)", "setting": "[6]", "value": "1.54 ± 0.34"}]}, {"test system": "SAg SRB down", "values": [{"measurement": "LOEC (log10 uM)", "setting": "[1]", "value": 1.3}, {"measurement": "LOEC (log10 uM)", "setting": "[2]", "value": 1.3}, {"measurement": "LOEC (log10 uM)", "setting": "[3]", "value": 1.3}, {"measurement": "LOEC (log10 uM)", "setting": "[5]", "value": 1.78}, {"measurement": "LOEC (log10 uM)", "setting": "Perfluoropinacol", "value": 1.3}, {"measurement": "LOEC (log10 uM)", "setting": "[6]", "value": 1.3}, {"measurement": "LOEC (log10 uM)", "setting": "[10]", "value": 1.78}]}, {"test system": "3C Proliferation down", "values": [{"measurement": "LOEC (log10 uM)", "setting": "[1]", "value": 0.845}, {"measurement": "LOEC (log10 uM)", "setting": "[2]", "value": "0.573 ± 0.39"}, {"measurement": "LOEC (log10 uM)", "setting": "[11]", "value": "-0.96 ± 0.37"}, {"measurement": "LOEC (log10 uM)", "setting": "[3]", "value": 0.845}, {"measurement": "LOEC (log10 uM)", "setting": "[4]", "value": 1.78}, {"measurement": "LOEC (log10 uM)", "setting": "[5]", "value": 1.3}, {"measurement": "LOEC (log10 uM)", "setting": "Perfluoropinacol", "value": 0.845}, {"measurement": "LOEC (log10 uM)", "setting": "[6]", "value": 1.3}, {"measurement": "LOEC (log10 uM)", "setting": "[7]", "value": "1.04 ± 1"}, {"measurement": "LOEC (log10 uM)", "setting": "[8]", "value": 1.3}]}, {"test system": "BF4T MCP1 down", "values": [{"measurement": "LOEC (log10 uM)", "setting": "[1]", "value": "1.07 ± 0.32"}, {"measurement": "LOEC (log10 uM)", "setting": "[2]", "value": 1.3}, {"measurement": "LOEC (log10 uM)", "setting": "[3]", "value": 1.3}, {"measurement": "LOEC (log10 uM)", "setting": "[5]", "value": 0.845}, {"measurement": "LOEC (log10 uM)", "setting": "Perfluoropinacol", "value": 1.78}, {"measurement": "LOEC (log10 uM)", "setting": "[6]", "value": 1.3}, {"measurement": "LOEC (log10 uM)", "setting": "[7]", "value": "1.07 ± 0.32"}, {"measurement": "LOEC (log10 uM)", "setting": "[10]", "value": 1.3}]}, {"test system": "3C SRB down", "values": [{"measurement": "LOEC (log10 uM)", "setting": "[1]", "value": 1.3}, {"measurement": "LOEC (log10 uM)", "setting": "[2]", "value": 1.3}, {"measurement": "LOEC (log10 uM)", "setting": "[11]", "value": -0.222}, {"measurement": "LOEC (log10 uM)", "setting": "[3]", "value": 1.3}, {"measurement": "LOEC (log10 uM)", "setting": "[5]", "value": 1.3}, {"measurement": "LOEC (log10 uM)", "setting": "Perfluoropinacol", "value": 1.3}, {"measurement": "LOEC (log10 uM)", "setting": "[6]", "value": 1.3}, {"measurement": "LOEC (log10 uM)", "setting": "[10]", "value": 1.78}]}, {"test system": "IMphg CD69 down", "values": [{"measurement": "LOEC (log10 uM)", "setting": "[1]", "value": 0.845}, {"measurement": "LOEC (log10 uM)", "setting": "[2]", "value": 1.78}, {"measurement": "LOEC (log10 uM)", "setting": "[3]", "value": 1.78}, {"measurement": "LOEC (log10 uM)", "setting": "[5]", "value": 1.78}, {"measurement": "LOEC (log10 uM)", "setting": "Perfluoropinacol", "value": "1.07 ± 0.32"}, {"measurement": "LOEC (log10 uM)", "setting": "[6]", "value": "1.54 ± 0.34"}, {"measurement": "LOEC (log10 uM)", "setting": "[7]", "value": 1.78}]}, {"test system": "MyoF MMP1 up", "values": [{"measurement": "LOEC (log10 uM)", "setting": "Perfluoropinacol", "value": 1.78}, {"measurement": "LOEC (log10 uM)", "setting": "[8]", "value": 1.78}]}, {"test system": "hDFCGF VCAM1 down", "values": [{"measurement": "LOEC (log10 uM)", "setting": "[2]", "value": 0.301}, {"measurement": "LOEC (log10 uM)", "setting": "[3]", "value": 0.845}, {"measurement": "LOEC (log10 uM)", "setting": "[9]", "value": 1.78}, {"measurement": "LOEC (log10 uM)", "setting": "[4]", "value": 1.78}, {"measurement": "LOEC (log10 uM)", "setting": "[5]", "value": 0.845}, {"measurement": "LOEC (log10 uM)", "setting": "Perfluoropinacol", "value": 1.3}, {"measurement": "LOEC (log10 uM)", "setting": "[6]", "value": 1.3}, {"measurement": "LOEC (log10 uM)", "setting": "[7]", "value": "1.54 ± 0.34"}, {"measurement": "LOEC (log10 uM)", "setting": "[8]", "value": 1.3}]}, {"test system": "IMphg VCAM1 down", "values": [{"measurement": "LOEC (log10 uM)", "setting": "[1]", "value": "1.54 ± 0.34"}, {"measurement": "LOEC (log10 uM)", "setting": "[2]", "value": 1.3}, {"measurement": "LOEC (log10 uM)", "setting": "[3]", "value": 1.3}, {"measurement": "LOEC (log10 uM)", "setting": "[5]", "value": 1.3}, {"measurement": "LOEC (log10 uM)", "setting": "Perfluoropinacol", "value": "1.54 ± 0.34"}, {"measurement": "LOEC (log10 uM)", "setting": "[6]", "value": 1.78}, {"measurement": "LOEC (log10 uM)", "setting": "[7]", "value": 1.78}]}, {"test system": "CASM3C Proliferation down", "values": [{"measurement": "LOEC (log10 uM)", "setting": "[1]", "value": "0.801 ± 0.71"}, {"measurement": "LOEC (log10 uM)", "setting": "[2]", "value": 1.3}, {"measurement": "LOEC (log10 uM)", "setting": "[3]", "value": 1.3}, {"measurement": "LOEC (log10 uM)", "setting": "[4]", "value": 1.78}, {"measurement": "LOEC (log10 uM)", "setting": "[5]", "value": 0.845}, {"measurement": "LOEC (log10 uM)", "setting": "Perfluoropinacol", "value": 1.3}, {"measurement": "LOEC (log10 uM)", "setting": "[6]", "value": 1.3}, {"measurement": "LOEC (log10 uM)", "setting": "[7]", "value": 1.78}]}, {"test system": "BT PBMCCytotoxicity down", "values": [{"measurement": "LOEC (log10 uM)", "setting": "[1]", "value": 1.78}, {"measurement": "LOEC (log10 uM)", "setting": "[2]", "value": 0.845}, {"measurement": "LOEC (log10 uM)", "setting": "[11]", "value": "-0.199 ± 0.71"}, {"measurement": "LOEC (log10 uM)", "setting": "[3]", "value": "1.54 ± 0.34"}, {"measurement": "LOEC (log10 uM)", "setting": "[5]", "value": 1.78}, {"measurement": "LOEC (log10 uM)", "setting": "Perfluoropinacol", "value": 1.78}, {"measurement": "LOEC (log10 uM)", "setting": "[6]", "value": "1.54 ± 0.34"}, {"measurement": "LOEC (log10 uM)", "setting": "[7]", "value": 1.78}, {"measurement": "LOEC (log10 uM)", "setting": "[8]", "value": 1.3}]}]}
